Target: human orexin 2 receptor (Homo sapiens (Human), UniProt O43614)
Assay: Human orexin 2 receptor Ca2+ mobilization assay (FLIPR, PFSK cells, orexin B 100 nM)
Assay type: cell-based
Conditions: modified Cheng-Prusoff correction, read-out: OR 2 Kb
Method: Human Orexin 2 Receptor Ca^2+ Mobilization Assay
Cells were seeded on to 96-well Packard viewplates at a density of 50,000 cells/well and incubated overnight at 37° C., 5% CO2. The cells were dye-loaded with 4 μM Ca^2+ dye Fluo-3AM in serum-free DMEM/F-12 with 2.5 mM probenecid and incubated at 37° C., 5% CO2 for one hour. Cells were pre-incubated with compounds (diluted in DMEM/F-12) for 30 minutes before agonist (orexin B, 100 nM) stimulation. Ligand-induced Ca^2+ release was measured using a Fluorometric Imaging Plate Reader (FLIPR, Molecular Devices, Sunnyvale, Calif.). Functional responses were measured as peak fluorescence intensity minus basal. The concentration of agonist that produced a half-maximal response is represented by the EC50 value. Antagonistic potency values were converted to apparent pKB values using a modified Cheng-Prusoff correction. Apparent pKB=−log IC50/1+[conc agonist/EC50]. Data are expressed as mean±S.E.M, the designation of NT means not tested.

Chain of human orexin 2 receptor (O43614 whole entry): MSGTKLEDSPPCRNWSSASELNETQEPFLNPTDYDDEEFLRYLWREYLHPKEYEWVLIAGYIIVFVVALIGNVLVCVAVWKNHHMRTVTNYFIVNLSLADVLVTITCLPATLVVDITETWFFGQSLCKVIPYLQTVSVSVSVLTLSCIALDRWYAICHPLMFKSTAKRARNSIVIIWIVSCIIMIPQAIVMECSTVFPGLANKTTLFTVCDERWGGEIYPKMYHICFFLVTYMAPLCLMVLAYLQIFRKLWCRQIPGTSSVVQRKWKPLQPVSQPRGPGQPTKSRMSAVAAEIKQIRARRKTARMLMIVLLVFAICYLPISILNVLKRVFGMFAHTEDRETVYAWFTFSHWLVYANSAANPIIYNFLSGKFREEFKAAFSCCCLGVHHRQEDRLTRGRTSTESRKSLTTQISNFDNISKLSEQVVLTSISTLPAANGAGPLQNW

How did the Kb turn out when `COc1cc(N2CC3CN(C(=O)c4c(F)cccc4-n4nccn4)CC3C2)nc(N(C)C)n1` (stereo not drawn) [Example 1, 4-[5-{[2-Fluoro-6-(2H-1,2,3-triazol-2-yl)phenyl]carbonyl}hexahydropyrrolo[3,4-c]pyrrol-2(1H)-yl]-6-methoxy-N,N-dimethylpyrimidin-2-amine] was run?
Its Kb is 10 nM.

For `CN(C)c1cc(N2CC3CN(C(=O)c4ccccc4-n4nccn4)CC3C2)nc(C(F)(F)F)n1` (stereo not drawn) [Example 2, N,N-Dimethyl-6-[5-{[2-(2H-1,2,3-triazol-2-yl)phenyl]carbonyl}hexahydropyrrolo[3,4-c]pyrrol-2(1H)-yl]-2-(trifluoromethyl)pyrimidin-4-amine], which Kb is on record?
The Kb was 16 nM.

Which Kb does the source give for `CN(C)c1cc(N2CC3CN(C(=O)c4c(F)cccc4-n4nccn4)CC3C2)nc(C(F)(F)F)n1` (stereo not drawn) [Example 3, 6-[5-{[2-Fluoro-6-(2H-1,2,3-triazol-2-yl)phenyl]carbonyl}hexahydropyrrolo[3,4-c]pyrrol-2(1H)-yl]-N,N-dimethyl-2-(trifluoromethyl)pyrimidin-4-amine] here?
Its Kb is 14 nM.

How did the Kb turn out when `COc1cc(N2CC3CN(C(=O)c4cc(F)ccc4-n4nccn4)CC3C2)nc(N(C)C)n1` (stereo not drawn) [Example 4, 4-[5-{[5-Fluoro-2-(2H-1,2,3-triazol-2-yl)phenyl]carbonyl}hexahydropyrrolo[3,4-c]pyrrol-2(1H)-yl]-6-methoxy-N,N-dimethylpyrimidin-2-amine] was run?
The Kb was 32 nM.

For `COc1cc(N2CC3CN(C(=O)c4ccccc4-n4nccn4)CC3C2)nc(N(C)C)n1` (stereo not drawn) [Example 5, 4-Methoxy-N,N-dimethyl-6-[5-{[2-(2H-1,2,3-triazol-2-yl)phenyl]carbonyl}hexahydropyrrolo-[3,4-c]pyrrol-2(1H)-yl]pyrimidin-2-amine], which Kb is on record?
Its Kb is 5 nM.

How did the Kb turn out when `CN(C)c1cc(N2CC3CN(C(=O)c4ccc(F)cc4-n4nccn4)CC3C2)nc(C(F)(F)F)n1` (stereo not drawn) [Example 6, 6-[5-{[4-Fluoro-2-(2H-1,2,3-triazol-2-yl)phenyl]carbonyl}hexahydropyrrolo[3,4-c]pyrrol-2(1H)-yl]-N,N-dimethyl-2-(trifluoromethyl)pyrimidin-4-amine] was run?
Its Kb is 25 nM.

Which Kb does the source give for `COc1cc(N2CC3CN(C(=O)c4ccc(F)cc4-n4nccn4)CC3C2)nc(N(C)C)n1` (stereo not drawn) [Example 7, 4-[5-{[4-Fluoro-2-(2H-1,2,3-triazol-2-yl)phenyl]carbonyl}hexahydropyrrolo[3,4-c]pyrrol-2(1H)-yl]-6-methoxy-N,N-dimethylpyrimidin-2-amine] here?
The Kb was 13 nM.

Which Kb does the source give for `CN(C)c1cc(N2CC3CN(C(=O)c4cc(F)ccc4-n4nccn4)CC3C2)nc(C(F)(F)F)n1` (stereo not drawn) [Example 9, 6-[5-{[5-Fluoro-2-(2H-1,2,3-triazol-2-yl)phenyl]carbonyl}hexahydropyrrolo[3,4-c]pyrrol-2(1H)-yl]-N,N-dimethyl-2-(trifluoromethyl)pyrimidin-4-amine] here?
Its Kb is 56 nM.

How did the Kb turn out when `Cc1cc(C)nc(N2CC3CN(C(=O)c4sccc4-c4ccccc4)CC3C2)n1` (stereo not drawn) [Example 12, 2-(4,6-Dimethylpyrimidin-2-yl)-5-[(3-phenylthiophen-2-yl)carbonyl]octahydropyrrolo[3,4-c]pyrrole] was run?
Its Kb is 32 nM.

How did the Kb turn out when `Cc1cc(C)nc(N2CC3CN(C(=O)c4occc4-c4ccccc4)CC3C2)n1` (stereo not drawn) [Example 13, 2-(4,6-Dimethylpyrimidin-2-yl)-5-[(3-phenylfuran-2-yl)carbonyl]octahydropyrrolo[3,4-c]pyrrole] was run?
Its Kb is 79 nM.

`Cc1cc(C)nc(N2CC3CN(C(=O)c4ccccc4-c4nnc[nH]4)CC3C2)n1` (stereo not drawn) [Example 14, 2-(4,6-Dimethylpyrimidin-2-yl)-5-{[2-(1H-1,2,4-triazol-5-yl)phenyl]carbonyl}octahydro-pyrrolo[3,4-c]pyrrole] was tested. Which Kb did it give?
Its Kb is 9 nM.

With `O=C(c1ccccc1-c1cccs1)N1CC2CN(c3cnc4ccccc4n3)CC2C1` (stereo not drawn) [Example 19, 2-{5-[(2-Thiophen-2-ylphenyl)carbonyl]hexahydropyrrolo[3,4-c]pyrrol-2(1H)-yl}quinoxaline] as the compound, how does the Kb read?
Its Kb is 31 nM.

With `Cc1ccc2ccccc2c1C(=O)N1CC2CN(c3cnc4ccccc4n3)CC2C1` (stereo not drawn) [Example 20, 2-{5-[(2-Methylnaphthalen-1-yl)carbonyl]hexahydropyrrolo[3,4-c]pyrrol-2(1H)-yl}quinoxaline] as the compound, how does the Kb read?
The Kb was 129 nM.

How did the Kb turn out when `O=C(c1ccccc1-c1cccs1)N1CC2CN(c3nccc(-c4ccccc4)n3)CC2C1` (stereo not drawn) [Example 22, 2-(4-Phenylpyrimidin-2-yl)-5-[(2-thiophen-2-ylphenyl)carbonyl]octahydro-pyrrolo[3,4-c]pyrrole] was run?
The Kb was 158 nM.

Which Kb does the source give for `Cc1ccc2ccccc2c1C(=O)N1CC2CN(c3nccc(-c4ccccc4)n3)CC2C1` (stereo not drawn) [Example 25, 2-[(2-Methylnaphthalen-1-yl)carbonyl]-5-(4-phenylpyrimidin-2-yl)octahydropyrrolo[3,4-c]pyrrole] here?
The Kb was 99 nM.

For `Cc1ccnc(N2CC3CN(C(=O)c4ccccc4-c4cccs4)CC3C2)n1` (stereo not drawn) [Example 32, 2-(4-Methylpyrimidin-2-yl)-5-[(2-thiophen-2-ylphenyl)carbonyl]octahydro-pyrrolo[3,4-c]pyrrole], which Kb is on record?
Its Kb is 32 nM.

How did the Kb turn out when `Cc1cc(C)nc(N2CC3CN(C(=O)c4ccccc4-c4cccs4)CC3C2)n1` (stereo not drawn) [Example 43, 2-(4,6-Dimethylpyrimidin-2-yl)-5-[(2-thiophen-2-ylphenyl)carbonyl]octahydro-pyrrolo[3,4-c]pyrrole] was run?
Its Kb is 10 nM.

With `Cc1cc(C)nc(N2CC3CN(C(=O)c4ccccc4-c4ccccc4)CC3C2)n1` (stereo not drawn) [Example 44, 2-(Biphenyl-2-ylcarbonyl)-5-(4,6-dimethylpyrimidin-2-yl)octahydropyrrolo[3,4-c]pyrrole] as the compound, how does the Kb read?
Its Kb is 63 nM.

`COc1ccnc(N2CC3CN(C(=O)c4ccccc4-c4cccs4)CC3C2)n1` (stereo not drawn) [Example 45, 2-(4-Methoxypyrimidin-2-yl)-5-[(2-thiophen-2-ylphenyl)carbonyl]octahydro-pyrrolo[3,4-c]pyrrole] was tested. Which Kb did it give?
Its Kb is 10 nM.

`Cc1cc(C)nc(N2CC3CN(C(=O)c4c(C)ccc5ccccc45)CC3C2)n1` (stereo not drawn) [Example 47, 2-(4,6-Dimethylpyrimidin-2-yl)-5-[(2-methylnaphthalen-1-yl)carbonyl]octahydro-pyrrolo[3,4-c]pyrrole] was tested. Which Kb did it give?
Its Kb is 32 nM.

`COc1ccnc(N2CC3CN(C(=O)c4c(C)ccc5ccccc45)CC3C2)n1` (stereo not drawn) [Example 49, 2-(4-Methoxypyrimidin-2-yl)-5-[(2-methylnaphthalen-1-yl)carbonyl]octahydro-pyrrolo[3,4-c]pyrrole] was tested. Which Kb did it give?
Its Kb is 32 nM.

`Cc1cc(C)nc(N2CC3CN(C(=O)c4ccccc4-c4cccc(F)c4)CC3C2)n1` (stereo not drawn) [Example 52, 2-(4,6-Dimethylpyrimidin-2-yl)-5-[(3′-fluorobiphenyl-2-yl)carbonyl]octahydro-pyrrolo[3,4-c]pyrrole] was tested. Which Kb did it give?
The Kb was 50 nM.

For `CCOc1ccc2ccccc2c1C(=O)N1CC2CN(c3nccc(OC)n3)CC2C1` (stereo not drawn) [Example 56, 2-[(2-Ethoxynaphthalen-1-yl)carbonyl]-5-(4-methoxypyrimidin-2-yl)octahydropyrrolo[3,4-c]pyrrole], which Kb is on record?
The Kb was 40 nM.

How did the Kb turn out when `O=C(c1ccccc1-c1cccs1)N1CC2CN(c3nccc(-c4cn[nH]c4)n3)CC2C1` (stereo not drawn) [Example 62, 2-[4-(1H-Pyrazol-4-yl)pyrimidin-2-yl]-5-[(2-thiophen-2-ylphenyl)carbonyl]octahydro-pyrrolo[3,4-c]pyrrole] was run?
The Kb was 40 nM.

`Cc1cnc(C)c(N2CC3CN(C(=O)c4ccccc4-c4cccs4)CC3C2)n1` (stereo not drawn) [Example 63, 2-(3,6-Dimethylpyrazin-2-yl)-5-[(2-thiophen-2-ylphenyl)carbonyl]octahydro-pyrrolo[3,4-c]pyrrole] was tested. Which Kb did it give?
The Kb was 20 nM.

With `COc1cc(OC)nc(N2CC3CN(C(=O)c4c(F)cccc4-c4ncccn4)CC3C2)n1` (stereo not drawn) [Example 68, 2-(4,6-Dimethoxypyrimidin-2-yl)-5-[(2-fluoro-6-pyrimidin-2-ylphenyl)carbonyl]octahydropyrrolo[3,4-c]pyrrole] as the compound, how does the Kb read?
Its Kb is 16 nM.

`Cc1cc(C)nc(N2CC3CN(C(=O)c4ccccc4-c4ccccn4)CC3C2)n1` (stereo not drawn) [Example 69, 2-(4,6-Dimethylpyrimidin-2-yl)-5-[(2-pyridin-2-ylphenyl)carbonyl]octahydro-pyrrolo[3,4-c]pyrrole] was tested. Which Kb did it give?
Its Kb is 8 nM.

With `COc1cc(OC)nc(N2CC3CN(C(=O)c4ccccc4-c4ccccn4)CC3C2)n1` (stereo not drawn) [Example 70, 2-(4,6-Dimethoxypyrimidin-2-yl)-5-[(2-pyridin-2-ylphenyl)carbonyl]octahydro-pyrrolo[3,4-c]pyrrole] as the compound, how does the Kb read?
Its Kb is 40 nM.

Which Kb does the source give for `Cc1cc(C)nc(N2CC3CN(C(=O)c4c(F)cccc4-c4ncccn4)CC3C2)n1` (stereo not drawn) [Example 73, 2-(4,6-Dimethylpyrimidin-2-yl)-5-[(2-fluoro-6-pyrimidin-2-ylphenyl)carbonyl]octahydropyrrolo[3,4-c]pyrrole] here?
The Kb was 5 nM.

How did the Kb turn out when `Cc1cc(C)nc(N2CC3CN(C(=O)c4cc(F)ccc4-c4ncccn4)CC3C2)n1` (stereo not drawn) [Example 74, 2-(4,6-Dimethylpyrimidin-2-yl)-5-[(5-fluoro-2-pyrimidin-2-ylphenyl)carbonyl]octahydropyrrolo[3,4-c]pyrrole] was run?
Its Kb is 10 nM.

`CCOc1ccc2ccccc2c1C(=O)N1CC2CN(c3nc(C)cc(C)n3)CC2C1` (stereo not drawn) [Example 77, 2-(4,6-Dimethylpyrimidin-2-yl)-5-[(2-ethoxynaphthalen-1-yl)carbonyl]octahydro-pyrrolo[3,4-c]pyrrole] was tested. Which Kb did it give?
The Kb was 16 nM.

Which Kb does the source give for `COc1cc(OC)nc(N2CC3CN(C(=O)c4ccccc4-n4nccn4)CC3C2)n1` (stereo not drawn) [Example 84, 2-(4,6-Dimethoxypyrimidin-2-yl)-5-{[2-(2H-1,2,3-triazol-2-yl)phenyl]carbonyl}octahydropyrrolo[3,4-c]pyrrole] here?
Its Kb is 25 nM.

How did the Kb turn out when `O=C(c1ccccc1-c1nnc[nH]1)N1CC2CN(c3cnc4ccccc4n3)CC2C1` (stereo not drawn) [Example 85, 2-[5-{[2-(4H-1,2,4-Triazol-3-yl)phenyl]carbonyl}hexahydropyrrolo[3,4-c]pyrrol-2(1H)-yl]quinoxaline] was run?
The Kb was 63 nM.

Source: US9586962B2, “Disubstituted octahydropyrrolo [3,4-C] pyrroles as orexin receptor modulators” (Janssen Pharmaceutica NV, priority 2011, dated 2017)
